# Patent US20100256183A1, “FUNGICIDAL 2-ALKYLTHIO-2-QUINOLINYLOXY-ACETAMIDE DERIVATIVES” (priority 2007, published 2010)
# Read-outs that look alike come from different tables or passages of the source.
# Tests used:
# Plasmopara viticola = assay: Leaf disk assay, Plasmopara viticola (downy mildew of grapevine); type: in vivo; conditions: foliar, 168 h, read-out: control of fungal infection
# Phytophthora infestans = assay: whole plant or invertebrate; type: in vivo; conditions: in Solanum lycopersicum, foliar, 96 h, read-out: control of fungal infection
# Pythium ultimum = Pythium ultimum (damping off) growth inhibition in potato dextrose broth, photometric; type: cell-based; conditions: Globisporangium ultimum, read-out: control of fungal infection
# [1] = tested on: Erysiphe graminis f.sp. tritici; assay: Leaf disk assay, Erysiphe graminis f.sp. tritici (wheat powdery mildew); type: in vivo; conditions: Blumeria graminis, foliar, 96 h, read-out: control of fungal infection
# Pyricularia oryzae = assay: whole plant or invertebrate; type: in vivo; conditions: foliar, 96 h, read-out: control of fungal infection
# Septoria nodorum = assay: Leaf disk assay, Septoria nodorum (wheat glume blotch); type: in vivo; conditions: for pest or weed control at 200 ppm: Parastagonospora nodorum, foliar, 96 h, read-out: control of fungal infection
# [2] = 200 ppm, grapevine leaf disks, preventive, seven days after inoculation
# [3] = 200 ppm, wheat leaf segments, preventive, four days after inoculation
# [4] = 20 ppm, preventive, four days after inoculation
# [5] = 60 ppm, preventive, four days after inoculation
# [6] = 200 ppm, preventive, four days after inoculation
# [7] = 20 ppm, inhibition of growth after 48 hours at 24° C.
SMILES,pest or weed control at 200 ppm (Plasmopara viticola) [%],pest or weed control at 200 ppm (Phytophthora infestans) [%],inhibition of growth at 20 ppm (Pythium ultimum; 48 h) [%],pest or weed control at 200 ppm [1] [%],pest or weed control at 200 ppm (Pyricularia oryzae) [%],also measured
"COCCOCCC#CC(C)(C)NC(=O)C(Oc1cc(C)c2ncc(Br)cc2c1)SC (centres unmarked) [25(4), 2-(3-Bromo-8-methyl-quinolin-6-yloxy)-N-[5-(2-methoxy-ethoxy)-1,1-dimethyl-pent-2-ynyl]-2-methylsulfanyl-acetamide]",≥ 60,≥ 60,≥ 60,,,
"CCc1cc(OC(SC)C(=O)NC(C)(C)C#CCOC)cc2cc(Br)cnc12 (centres unmarked) [35(4), 2-(3-Bromo-8-ethyl-quinolin-6-yloxy)-N-(4-methoxy-1,1-dimethyl-but-2-ynyl)-2-methylsulfanyl-acetamide]",≥ 60,≥ 60,≥ 60,≥ 60,≥ 60,pest or weed control at 200 ppm (Septoria nodorum): ≥ 60%
"C#CC(C)(C)NC(=O)C(Oc1cc(C)c2ncc(Cl)cc2c1)SC (centres unmarked) [Compound 17(4), 2-(3-Chloro-8-methyl-quinolin-6-yloxy)-N-(1,1-dimethyl-prop-2-ynyl)-2-methylsulfanyl-acetamide]",,≥ 60,,,≥ 60,"pest or weed control at 200 ppm (Plasmopara viticola; [2]): ≥ 60%; pest or weed control at 200 ppm [1, 3]: ≥ 60%; Efficacy (%) (Septoria nodorum; [4]): 80%; Efficacy (%) (Septoria nodorum; [5]): 100%; Efficacy (%) (Septoria nodorum; [6]): 100%; pest or weed control at 200 ppm (Septoria nodorum; [3]): ≥ 60%; inhibition of growth at 20 ppm (Pythium ultimum; [7]): ≥ 60%"
"CC#CC(C)(C)NC(=O)C(Oc1cc(C)c2ncc(Cl)cc2c1)SC (centres unmarked) [18(4), 2-(3-Chloro-8-methyl-quinolin-6-yloxy)-N-(1,1-dimethyl-but-2-ynyl)-2-methylsulfanyl-acetamide]",≥ 60,≥ 60,≥ 60,≥ 60,≥ 60,pest or weed control at 200 ppm (Septoria nodorum): ≥ 60%
"CSC(Oc1cc(C)c2ncc(Br)cc2c1)C(=O)NC(C)(C)C#C/C=C/CO (centres unmarked) [24(4), 2-(3-Bromo-8-methyl-quinolin-6-yloxy)-N-((E)-6-hydroxy-1,1-dimethyl-hex-4-en-2-ynyl)-2-methylsulfanyl-acetamide]",,≥ 60,,,,"pest or weed control at 200 ppm (Plasmopara viticola; [2]): ≥ 60%; pest or weed control at 200 ppm [1, 3]: ≥ 60%; inhibition of growth at 20 ppm (Pythium ultimum; [7]): ≥ 60%"
"C=CCOCC#CC(C)(C)NC(=O)C(Oc1cc(C)c2ncc(Br)cc2c1)SC (centres unmarked) [28(4), N-(4-Allyloxy-1,1-dimethyl-but-2-ynyl)-2-(3-bromo-8-methyl-quinolin-6-yloxy)-2-methylsulfanyl-acetamide]",,≥ 60,≥ 60,≥ 60,,pest or weed control at 200 ppm (Septoria nodorum): ≥ 60%
"COCC#CC(C)(C)NC(=O)C(Oc1cc(C)c2ncc(Cl)cc2c1)SC (centres unmarked) [19(4), 2-(3-Chloro-8-methyl-quinolin-6-yloxy)-N-(4-methoxy-1,1-dimethyl-but-2-ynyl)-2-methylsulfanyl-acetamide]",≥ 60,≥ 60,≥ 60,≥ 60,,
"CSC(Oc1cc(C)c2ncc(Br)cc2c1)C(=O)NC(C)(C)C#CCO (centres unmarked) [30(4), 2-(3-Bromo-8-methyl-quinolin-6-yloxy)-N-(4-hydroxy-1,1-dimethyl-but-2-ynyl)-2-methylsulfanyl-acetamide]",,≥ 60,≥ 60,≥ 60,≥ 60,pest or weed control at 200 ppm (Septoria nodorum): ≥ 60%
"CCC#CC(C)(C)NC(=O)C(Oc1cc(C)c2ncc(Br)cc2c1)SC (centres unmarked) [4(4), 2-(3-Bromo-8-methyl-quinolin-6-yloxy)-N-(1,1-dimethyl-pent-2-ynyl)-2-methylsulfanyl-acetamide]",≥ 60,,,,,
"COCC#CC(C)(C)NC(=O)C(Oc1cc(C)c2ncc(Br)cc2c1)SC (centres unmarked) [3(4), 2-(3-Bromo-8-methyl-quinolin-6-yloxy)-N-(4-methoxy-1,1-dimethyl-but-2-ynyl)-2-methylsulfanyl-acetamide]",≥ 60,≥ 60,,≥ 60,≥ 60,pest or weed control at 200 ppm (Septoria nodorum): ≥ 60%
"C#CC(C)(C)NC(=O)C(Oc1cc(CC)c2ncc(Br)cc2c1)SC (centres unmarked) [33(4), 2-(3-Bromo-8-ethyl-quinolin-6-yloxy)-N-(1,1-dimethyl-prop-2-ynyl)-2-methylsulfanyl-acetamide]",,,,,≥ 60,"pest or weed control at 200 ppm (Plasmopara viticola; [2]): ≥ 60%; pest or weed control at 200 ppm [1, 3]: ≥ 60%; pest or weed control at 200 ppm (Septoria nodorum; [3]): ≥ 60%; inhibition of growth at 20 ppm (Pythium ultimum; [7]): ≥ 60%"
"C#CC(C)(CC)NC(=O)C(Oc1cc(C)c2ncc(Br)cc2c1)SC (centres unmarked) [7(4), 2-(3-Bromo-8-methyl-quinolin-6-yloxy)-N-(1-ethyl-1-methyl-prop-2-ynyl)-2-methylsulfanyl-acetamide]",,,,,≥ 60,"pest or weed control at 200 ppm (Plasmopara viticola; [2]): ≥ 60%; pest or weed control at 200 ppm [1, 3]: ≥ 60%; pest or weed control at 200 ppm (Septoria nodorum; [3]): ≥ 60%"
"COCCC#CC(C)(C)NC(=O)C(Oc1cc(C)c2ncc(Cl)cc2c1)SC (centres unmarked) [21(4), 2-(3-Chloro-8-methyl-quinolin-6-yloxy)-N-(5-methoxy-1,1-dimethyl-pent-2-ynyl)-2-methylsulfanyl-acetamide]",≥ 60,≥ 60,≥ 60,≥ 60,,
"COCCC#CC(C)(C)NC(=O)C(Oc1cc(C)c2ncc(Br)cc2c1)SC (centres unmarked) [5(4), 2-(3-Bromo-8-methyl-quinolin-6-yloxy)-N-(5-methoxy-1,1-dimethyl-pent-2-ynyl)-2-methylsulfanyl-acetamide]",≥ 60,≥ 60,≥ 60,≥ 60,,
"CC#CC(C)(C)NC(=O)C(Oc1cc(CC)c2ncc(Br)cc2c1)SC (centres unmarked) [34(4), 2-(3-Bromo-8-ethyl-quinolin-6-yloxy)-N-(1,1-dimethyl-but-2-ynyl)-2-methylsulfanyl-acetamide]",≥ 60,,≥ 60,≥ 60,,
"C#CCOCC#CC(C)(C)NC(=O)C(Oc1cc(C)c2ncc(Br)cc2c1)SC (centres unmarked) [29(4), 2-(3-Bromo-8-methyl-quinolin-6-yloxy)-N-(1,1-dimethyl-4-prop-2-ynyloxy-but-2-ynyl)-2-methylsulfanyl-acetamide]",,,,≥ 60,≥ 60,
"C#CC(C)(NC(=O)C(Oc1cc(C)c2ncc(Br)cc2c1)SC)C(C)C (centres unmarked) [12(4), 2-(3-Bromo-8-methyl-quinolin-6-yloxy)-N-(1-isopropyl-1-methyl-prop-2-ynyl)-2-methylsulfanyl-acetamide]",,,,,,pest or weed control at 200 ppm (Plasmopara viticola; [2]): ≥ 60%; pest or weed control at 200 ppm (Septoria nodorum; [3]): ≥ 60%
"COCCOCOCC#CC(C)(C)NC(=O)C(Oc1cc(C)c2ncc(Br)cc2c1)SC (centres unmarked) [32(4), 2-(3-Bromo-8-methyl-quinolin-6-yloxy)-N-[4-(2-methoxy-ethoxymethoxy)-1,1-dimethyl-but-2-ynyl]-2-methylsulfanyl-acetamide]",≥ 60,≥ 60,,≥ 60,,
"C#CC(C)(C)NC(=O)C(Oc1ccc2ncc(Cl)cc2c1)SC (centres unmarked) [Compound 1(23), reference compound]",,,,,,Efficacy (%) (Septoria nodorum; [4]): 0%; Efficacy (%) (Septoria nodorum; [5]): 0%; Efficacy (%) (Septoria nodorum; [6]): 0%
"CCC#CC(C)(C)NC(=O)C(Oc1cc(C)c2ncc(Cl)cc2c1)SC (centres unmarked) [20(4), 2-(3-Chloro-8-methyl-quinolin-6-yloxy)-N-(1,1-dimethyl-pent-2-ynyl)-2-methylsulfanyl-acetamide]",,≥ 60,,,,
"CC#CC(C)(CC)NC(=O)C(Oc1cc(C)c2ncc(Br)cc2c1)SC (centres unmarked) [8(4), 2-(3-Bromo-8-methyl-quinolin-6-yloxy)-N-(1-ethyl-1-methyl-but-2-ynyl)-2-methylsulfanyl-acetamide]",≥ 60,,,,,pest or weed control at 200 ppm (Septoria nodorum): ≥ 60%
"CSC(Oc1cc(C)c2ncc(Br)cc2c1)C(=O)NC(C)(C)C#CC(C)(O)CCl (centres unmarked) [27(4), 2-(3-Bromo-8-methyl-quinolin-6-yloxy)-N-(5-chloro-4-hydroxy-1,1,4-trimethyl-pent-2-ynyl)-2-methylsulfanyl-acetamide]",≥ 60,,,≥ 60,,
"C#CC(C)(C)NC(=O)C(Oc1cc(C)c2ncc(Br)cc2c1)SC (centres unmarked) [2(4), 2-(3-Bromo-8-methyl-quinolin-6-yloxy)-N-(1,1-dimethyl-prop-2-ynyl)-2-methylsulfanyl-acetamide]",,≥ 60,,,≥ 60,"pest or weed control at 200 ppm (Plasmopara viticola; [2]): ≥ 60%; pest or weed control at 200 ppm [1, 3]: ≥ 60%; pest or weed control at 200 ppm (Septoria nodorum; [3]): ≥ 60%; inhibition of growth at 20 ppm (Pythium ultimum; [7]): ≥ 60%"
"COCOCC#CC(C)(C)NC(=O)C(Oc1cc(C)c2ncc(Br)cc2c1)SC (centres unmarked) [31(4), 2-(3-Bromo-8-methyl-quinolin-6-yloxy)-N-(4-methoxymethoxy-1,1-dimethyl-but-2-ynyl)-2-methylsulfanyl-acetamide]",,≥ 60,≥ 60,≥ 60,,
"CCOCC#CC(C)(C)NC(=O)C(Oc1cc(C)c2ncc(Br)cc2c1)SC (centres unmarked) [22(4), 2-(3-Bromo-8-methyl-quinolin-6-yloxy)-N-(4-ethoxy-1,1-dimethyl-but-2-ynyl)-2-methylsulfanyl-acetamide]",≥ 60,,,,,
